Experimental data from patent US11401264B2, “Heterocyclic compound” (Orizuru Therapeutics, Inc., priority 2018, dated 2022).

Tested on: cardiomyocytes from double knock-in human iPS cell lines (mCherry at TNNI3 locus)
Assay: Experimental Example 1: mCherry (TNNI3 reporter) immunostaining measured by high contents screening
Format: cell-based
Parameters: key to average fluorescent intensity (at 30 μM): —: The symbol in Table 2 means that the average fluorescent intensity cannot be evaluated due to cell decrease
Conditions: read on 8th day, Alexa 647 anti-mCherry, control well 797; for average fluorescent intensity (at 1 μM): test compound 1 μM added on 3rd and 6th culture days; for average fluorescent intensity (at 30 μM): test compound 30 μM added on 3rd and 6th culture days
Procedure: For detection of cardiomyocyte maturation, double knock-in human iPS cell lines, in which reporter protein sequences, EmGFP (Sequence Number 1) and mCherry (Sequence Number 2) were inserted into gene loci for TNNI1 and TNNI3, respectively, were prepared (the human iPS cells were prepared from episomal vector (loaded gene; OCT3/4, KLF4, SOX2, L-MYC, LIN28, mouse p53DD) using PBMC (LP_167, Sample ID: 20130318) purchased from CTL (reference literature; Okita K, et al. Stem Cells. 2012 Nov. 29. doi: 10.1002/stem.1293)).
The maintenance culture of the above-mentioned reporter iPS cell lines was carried out by a conventional method (Okita K, et al. Stem Cells. 2012 Nov. 29. doi: 10.1002/stem.1293).
For differentiation induction into cardiomyocytes, the reporter iPS cell lines were treated with 0.5×TrypLE select (Life Technologies, diluted in 1/2 with 0.5 mM EDTA/PBS) for 4 to 5 minutes, and the cells were exfoliated using a cell scraper (IWAKI), and then dissociated into the single cell by pipetting. The medium was removed by centrifugation (1,000 rpm, 5 min), and the obtained cells were seeded on a bioreactor (ABLE) by 1×10^7 cells per 30 mL of the bioreactor, and then cultured in a medium prepared by adding 1% L-glutamine, transferrin 150 μg/mL, ascorbic acid 50 μg/mL (Sigma), monothioglycerol 4×10^−4 M, 10 μM Rock inhibitor (Y-27632), 2 ng/mL BMP4 (R&D) and 0.5% Matrigel (Growth Factor Reduced) to a medium after removal of solution C from StemFit AK02 (AJINOMOTO AK02, 400 mL of solution A and 100 mL of B solution, total 500 mL), at 37° C., under 5% oxygen condition (55 rpm, stirred suspension culture method) to form embryoid bodies (0 day).
Next day (1st day), 9 μL (final concentration 3 ng/mL) of 10 μg/mL activin A, 15 μL (final concentration 5 ng/mL) of 10 μg/mL bFGF and […] (final concentration 10 ng/mL) of 10 μg/mL BMP4 were added to the bioreactor, and the cells were cultured at 37° C. for additional 2 days, under 5% oxygen condition.
Then (3rd day), the obtained embryoid bodies were collected in a 50 mL centrifuge tube, and then subjected to centrifugation (200 g, 1 min). The medium was removed, and the embryoid bodies were cultured in a medium prepared by adding 1% L-glutamine, transferrin 150 μg/mL, ascorbic acid 50 μg/mL (Sigma), monothioglycerol 4×10^−4 M, 10 ng/mL VEGF, 1 μM IWP-3, 0.6 μM dorsomorphin and 5.4 μM SB431542 to a medium after removal of solution C from StemFit AK02 (AJINOMOTO AK02, 400 mL of solution A and 100 mL of B solution, total 500 mL), at 37° C. for 3 days, under 5% oxygen condition (55 rpm, stirred suspension culture method).
Then (6th day), the bioreactor was left to stand to precipitate the embryoid bodies, and 80 to 90% of the medium was removed. A medium prepared by adding 1% L-glutamine, transferrin 150 μg/mL, ascorbic acid 50 μg/mL (Sigma), monothioglycerol […] and 5 ng/mL VEGF to a medium after removal of solution C from StemFit AK02 (AJINOMOTO AK02, 400 mL of solution A and 100 mL of B solution, total 500 mL) was added to the bioreactor so that the total volume became 30 mL, and the embryoid bodies were cultured for 8 days, at 37° C., under 5% oxygen condition (55 rpm, stirred suspension culture method). During the culture, the medium was replaced with a medium under the same conditions every 2 to 3 days.
14th Day after the start of the differentiation induction, the embryoid bodies were treated with 2 mg/mL collagenase type I (Sigma) for 2 hr, and then with 0.25% trypsin/EDTA (Invitrogen) for 10 min. 50% FBS/IMDM (Thermo Fisher Science) was added thereto, and the embryoid bodies were dissociated into the single cell by pipetting, and then subjected to centrifugation (1,000 rpm, 5 minutes). […]

SMILES	average fluorescent intensity (at 1 μM)	average fluorescent intensity (at 30 μM)
O=C1c2ccc(N3CCCCC3)cc2CN1c1ccc2[nH]c(-c3ccccc3)nc2c1 [Example 1, 2-(2-phenyl-1H-benzimidazol-5-yl)-5-(piperidin-1-yl)isoindolin-1-one]	1098	—
O=C1c2ccc(N3CCCCC3)cc2CN1c1ccc2[nH]c(Cc3ccccc3)nc2c1 [Example 2, 2-(2-benzyl-1H-benzimidazol-5-yl)-5-(piperidin-1-yl)isoindolin-1-one]	943	1073
O=C1c2ccc(N3CCCCC3)cc2CN1c1ccc2[nH]c(-c3ccc(OCc4ccccc4)cc3)nc2c1 [Example 3, 2-(2-(4-(benzyloxy)phenyl)-1H-benzimidazol-5-yl)-5-(piperidin-1-yl)isoindolin-1-one]	933	1441
COC(=O)COc1ccc(-c2nc3cc(N4Cc5cc(N6CCCCC6)ccc5C4=O)ccc3[nH]2)cc1 [Example 5, methyl (4-(5-(l-oxo-5-(piperidin-1-yl)-1,3-dihydro-2H-isoindol-2-yl)-1H-benzimidazol-2-yl)phenoxy)acetate]	1078	—
O=C(O)COc1ccc(-c2nc3cc(N4Cc5cc(N6CCCCC6)ccc5C4=O)ccc3[nH]2)cc1 [Example 6, (4-(5-(l-oxo-5-(piperidin-1-yl)-1,3-dihydro-2H-isoindol-2-yl)-1H-benzimidazol-2-yl)phenoxy)acetic acid]	974	987
COc1ccc(-c2nc3cc(N4Cc5ccccc5C4=O)ccc3[nH]2)cc1 [Example 7, 2-(2-(4-methoxyphenyl)-1H-benzimidazol-5-yl)isoindolin-1-one]	859	1631
O=C(COc1ccc(-c2nc3cc(N4Cc5cc(N6CCCCC6)ccc5C4=O)ccc3[nH]2)cc1)NC/C=C/CCc1ccccc1 [Example 9, 2-(4-(5-(1-oxo-5-(piperidin-1-yl)-1,3-dihydro-2H-isoindol-2-yl)-1H-benzimidazol-2-yl)phenoxy)-N-((2E)-5-phenylpent-2-en-1-yl)acetamide]	948	—
O=C(COc1ccc(-c2nc3cc(N4Cc5cc(N6CCCCC6)ccc5C4=O)ccc3[nH]2)cc1)NCCNc1cccc(F)c1 [Example 10, N-(2-((3-fluorophenyl)amino)ethyl)-2-(4-(5-(1-oxo-5-(piperidin-1-yl)-1,3-dihydro-2H-isoindol-2-yl)-1H-benzimidazol-2-yl)phenoxy)acetamide]	1032	—
CN(CCc1ccccc1)C(=O)CNC(=O)COc1ccc(-c2nc3cc(N4Cc5cc(N6CCCCC6)ccc5C4=O)ccc3[nH]2)cc1 [Example 11, N-methyl-N^~2^~-((4-(5-(1-oxo-5-(piperidin-1-yl)-1,3-dihydro-2H-isoindol-2-yl)-1H-benzimidazol-2-yl)phenoxy)acetyl)-N-(2-phenylethyl)glycinamide]	1182	—
O=C(COc1ccc(-c2nc3cc(N4Cc5cc(N6CCCCC6)ccc5C4=O)ccc3[nH]2)cc1)NCCCc1ccncc1 [Example 12, 2-(4-(5-(1-oxo-5-(piperidin-1-yl)-1,3-dihydro-2H-isoindol-2-yl)-1H-benzimidazol-2-yl)phenoxy)-N-(3-(pyridin-4-yl)propyl)acetamide]	1675	1226
CN(C)C(=O)C(NC(=O)COc1ccc(-c2nc3cc(N4Cc5cc(N6CCCCC6)ccc5C4=O)ccc3[nH]2)cc1)c1ccccc1 (stereo not shown) [Example 13, N,N-dimethyl-2-(((4-(5-(1-oxo-5-(piperidin-1-yl)-1,3-dihydro-2H-isoindol-2-yl)-1H-benzimidazol-2-yl)phenoxy)acetyl)amino)-2-phenylacetamide]	1212	—
CN(C(=O)COc1ccc(-c2nc3cc(N4Cc5cc(N6CCCCC6)ccc5C4=O)ccc3[nH]2)cc1)C1CCOCC1 [Example 14, N-methyl-2-(4-(5-(1-oxo-5-(piperidin-1-yl)-1,3-dihydro-2H-isoindol-2-yl)-1H-benzimidazol-2-yl)phenoxy)-N-(tetrahydro-2H-pyran-4-yl)acetamide]	2143	2012
CC1(O)CCN(C(=O)COc2ccc(-c3nc4cc(N5Cc6cc(N7CCCCC7)ccc6C5=O)ccc4[nH]3)cc2)CC1 [Example 15, 2-(2-(4-(2-(4-hydroxy-4-methylpiperidin-1-yl)-2-oxoethoxy)phenyl)-1H-benzimidazol-5-yl)-5-(piperidin-1-yl)isoindolin-1-one]	1701	2697
O=C(COc1ccc(-c2nc3cc(N4Cc5cc(N6CCCCC6)ccc5C4=O)ccc3[nH]2)cc1)N1CCS(=O)(=O)C1 [Example 16]	1366	3604
CC1(NC(=O)COc2ccc(-c3nc4cc(N5Cc6cc(N7CCCCC7)ccc6C5=O)ccc4[nH]3)cc2)CC1 [Example 18, N-(1-methylcyclopropyl)-2-(4-(5-(1-oxo-5-(piperidin-1-yl)-1,3-dihydro-2H-isoindol-2-yl)-1H-benzimidazol-2-yl)phenoxy)acetamide]	1272	1704
O=C(COc1ccc(-c2nc3cc(N4Cc5cc(N6CCCCC6)ccc5C4=O)ccc3[nH]2)cc1)Nc1ccc(F)cc1 [Example 19, N-(4-fluorophenyl)-2-(4-(5-(1-oxo-5-(piperidin-1-yl)-1,3-dihydro-2H-isoindol-2-yl)-1H-benzimidazol-2-yl)phenoxy)acetamide]	1292	860
O=C(COc1ccc(-c2nc3cc(N4Cc5cc(N6CCCCC6)ccc5C4=O)ccc3[nH]2)cc1)Nc1ccccc1F [Example 20, N-(2-fluorophenyl)-2-(4-(5-(1-oxo-5-(piperidin-1-yl)-1,3-dihydro-2H-isoindol-2-yl)-1H-benzimidazol-2-yl)phenoxy)acetamide]	1685	
O=C(COc1ccc(-c2nc3cc(N4Cc5cc(N6CCCCC6)ccc5C4=O)ccc3[nH]2)cc1)Nc1ccc(Cl)cc1 [Example 21, N-(4-chlorophenyl)-2-(4-(5-(1-oxo-5-(piperidin-1-yl)-1,3-dihydro-2H-isoindol-2-yl)-1H-benzimidazol-2-yl)phenoxy)acetamide]	1120	—
Cc1ccc(NC(=O)COc2ccc(-c3nc4cc(N5Cc6cc(N7CCCCC7)ccc6C5=O)ccc4[nH]3)cc2)cc1 [Example 22, N-(4-methylphenyl)-2-(4-(5-(1-oxo-5-(piperidin-1-yl)-1,3-dihydro-2H-isoindol-2-yl)-1H-benzimidazol-2-yl)phenoxy)acetamide]	1211	—
